We go through two molecules from patent publication US5049673A, “Fluorescent indicator dyes for calcium working at long wavelengths” (The Regents of the University of California, priority 1987, dated 1991).

For assay [1] the following is noted: pH 7.03, 100 mM KCl, 20° C; read-out: Apparent dissociation constant for the Ca^2+ complex; cited from earlier work.
The conditions of assay [2]: pH 7.60, 0.12 M ionic strength, 20°; read-out: Apparent dissociation constant for the Mg^2+ complex (including monoprotonated form); cited from earlier work.
Assay [3] in a line: Calibration of [Ca2+] increases produced by UV photolysis of nitr-5 or nitr-7. Conditions: results not shown. An excerpt:
The most obvious difference between the present chelators and the previous tetracarboxylate Ca^2+ chelators is in their wavelengths of fluorescence excitation and emission. The new indicators' similarity to fluoresceins and rhodamines make them optically compatible with almost any fluorometer, fluorescence microscope, or flow cytometer already used for immunofluorescence detection. The fluorescein analogs fluo-1, -2, and -3 can be excited by incandescent illumination or the prominent 488 nm line of an […]. The rhodamine analogs rhod-1 rhod-2 are suited to incandescent illumination, the 531 nm line of a krypton-ion laser, or the 546 nm line of a mercury arc. By contrast, the earlier dyes quin-2 and fura-2 are best excited at 340-350 or 380-390 nm from a xenon lamp. Indo-1 does best with 350-360 nm from a xenon arc or the low-power UV lines of argon or krypton lasers. Optical elements for these UV wavelengths are preferably reflective or are made from quartz, glasses with enhanced UV transmission, or very thin ordinary glass. Plastics or thick (>1 mm) ordinary glass elements generally give too much absorbance or autofluorescence or both. By contrast, even these cheap optical materials are compatible with blue or green excitation.

The conditions of assay [4]: room temperature, 0.1 M KCl, no added Mg^2+; read-out: Ca^2+ dissociation constant (Kd) used for FIG. 6; cited from earlier work.

Like-named read-outs stand apart in the source and are kept apart here.

As to `O=C(O)CN(CCOCCOCCN(CC(=O)O)CC(=O)O)CC(=O)O` [EGTA, ethylene glycol bis(-beta-aminoethyl ether)-N,N,N',N'-tetraacetic acid], the Kd in assay [1] is 0.327 µM; in assay [2], 6000 µM.
As for `Cc1ccc(N(CC(=O)O)CC(=O)O)c(OCCOc2cc3cc(-c4ncc(C(=O)O)o4)oc3cc2N(CC(=O)O)CC(=O)O)c1` [fura-2], the “Effect of excitation wavelengths on "caged" calcium” value in assay [3] is “the excitation wavelengths began to photolyze the "caged" calcium”. Further, the Kd in assay [4] is 0.135 µM.
